Test results: the METLIN SMRT retention time set (Domingo-Almenara et al. 2019)

Experiment: gradient 5% acetonitrile 3 min, to 50% in 2 min, to 85% in 15 min, held 3 min, 100 µL/min
Conditions: column: Zorbax Extend-C18 2.1 x 50 mm; eluents: water / acetonitrile, 0.1% formic acid
Method in brief: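 Over 3 months, pure standards in mixtures of ~100 molecules were run by HPLC coupled to a quadrupole time-of-flight mass spectrometer in positive and negative ionization mode. The column was a Zorbax Extend-C18 (2.1 × 50 mm, 1.8 μm) at 100 μL/min, eluted with water and acetonitrile each holding 0.1% formic acid, with 40 μL dead and 900 μL dwell volumes. Retention time was determined from adduct peaks chosen by software and checked manually.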

SMILES	RP-LC retention time
Cc1ccccc1-c1noc(Cn2cnc3c(cnn3-c3ccc(Br)cc3)c2=O)n1	1200 s
COc1nn(C)cc1C(=O)N1CCC(C(=O)Nc2ccc(-n3cnnn3)cc2)CC1	600 s
CNC(=O)[C@@H]1C[C@H](Oc2cccnc2)CN1C(=O)C1CCC1	540 s
CCCN1C(=O)COc2ccc(-c3noc(C4CC(=O)N(c5cccc(Cl)c5)C4)n3)cc21 (configuration not stated)	1080 s
Cc1ccc(NC(=O)Cn2nc(N3CCCC(C)C3)c3ccccc3c2=O)c(F)c1 (configuration not stated)	1110 s
O=C(NCCc1ccccc1)C1CCN(C(=O)C2Sc3ccccc3NC2=O)CC1 (configuration not stated)	740 s
FC(F)(F)c1cnc(N2CCN(Cc3ccccc3)CC2)c(Cl)c1	717 s
COC(=O)c1cc2c(=O)n(-c3cccc(C(F)(F)F)c3)ccc2nc1C	917 s
COCCn1c(SCc2nc(-c3ccc(F)cc3)no2)nc2cc3c(cc2c1=O)OCO3	1070 s
COc1cc(NC(=O)Cn2nc(N3CCC(C)CC3)c3ccccc3c2=O)cc(OC)c1	1110 s
COc1ccc(OC)c(NC(=O)Cn2c(=O)nc(NC3CCCC3)c3ccccc32)c1	740 s
Cc1cccc(N2CCN(C(=O)c3cn4c(n3)CCCC4)CC2)c1C	690 s
CCS(=O)(=O)N1CCC(F)(c2nc(-c3ccccc3)no2)CC1	952 s
Cn1nc(CNC(=O)CNC(=O)Cc2ccc(Cl)cc2)c2ccccc21	742 s
CC(C)(C)C(=O)Nc1nnc(-c2cccs2)o1	652 s
Cc1ccc(NC(=O)C2CCCN(c3ncnc4c3nc3n4CCCCC3)C2)c(Br)c1 (configuration not stated)	930 s
COC(=O)CNC(=O)N1CCCCC1c1nc(CCOCC2CC2)no1 (configuration not stated)	711 s
O=C(CCN(CC1CCCO1)C(=O)c1cccc(Br)c1)N1CCNCC1 (configuration not stated)	610 s
Cc1nc(CC(=O)NCc2ccc(C(F)(F)F)cc2)sc1C(=O)NCc1ccccc1	805 s

SMILES	RP-LC retention time
Cc1sc(-c2noc(C(C)C)n2)cc1S(=O)(=O)N1CCC(C(=O)NC2CCCCCC2)CC1	1140 s
N#Cc1cccc(-c2cn3c(n2)N(C(=O)CC2CCCC2)CCC3)c1	848 s
CCOC(=O)C12CC1/C(=N\O)c1ccccc1O2 (configuration not stated)	773 s
CCCN1CCN(C(=O)C2=NN(c3ccc(C)cc3)c3ncccc3S2(=O)=O)CC1	643 s
COC(=O)c1ncn2c1C(=O)N(c1ccc(C)cc1C)C(C)(C(=O)NCc1ccccc1)C2 (configuration not stated)	726 s
CN1C(=O)CC[C@]2(C(=O)NCc3cccc(C(F)(F)F)c3)CCCC[C@@H]12	744 s
Cc1sc(NC(=O)c2ccco2)nc1-c1ccc2c(c1)NC(=O)C(C)O2 (configuration not stated)	814 s
Oc1ccc(-c2nc3ncccn3c2Nc2ccc(Cl)cc2)cc1	666 s
CCn1cc(-c2ccc(C)cc2)cc1C(=O)N1CCN(C)CC1	657 s
Cc1cccc(CN2N=C(C(=O)N3CCOCC3)S(=O)(=O)c3ccccc32)c1	832 s
CCSc1nnc(-c2nn(C)c3c2CN(C(=O)c2cc(C)ccc2C)CC3)n1C	811 s
CCCN1C(=O)C(NC(=O)CCc2ccccc2)(C(F)(F)F)C(C(=O)OC)=C1C (configuration not stated)	916 s
CCc1noc(NC(C)=O)c1-c1ccc(C)c(S(=O)(=O)N2CCN(c3cc(C)ccc3C)CC2)c1	1130 s
Cc1sc(NC(=O)c2ccccc2F)nc1-c1ccc2c(c1)NC(=O)CO2	878 s
Cc1ccc(N2CC(NC(=O)Nc3nc(C)cs3)CC2=O)cc1 (configuration not stated)	660 s
CCOc1cc(=O)n2c(c1C(=O)N1CCC3(CC1)OCCO3)CCCCC2	639 s
COCCCN1C(=O)CC(N2CCN(c3ccc(F)cc3)CC2)C1=O (configuration not stated)	666 s
O=C(C1CCN(c2cncnc2N2CCCCC2)CC1)N1CCCC1	554 s
